Numbered stars: 1 amine (or outer) side, 2 acyl side, 3 side chain; on linkers, the order of the positions; unused ones are H or OH. Square brackets hold non-standard residues; d marks the D form. Side chains are listed from the residue outwards. Peptide text beside a SMILES is read from it. * marks the point of attachment. C18 diacid = O=C(O)CCCCCCCCCCCCCCCCC(=O)*; γGlu = O=C(O)[C@H](CCC(=O)[*:2])N[*:1]; Ac4c = NC1(C(=O)O)CCC1; AEEA = NCCOCCOCC(=O)O; Aib = CC(C)(N)C(=O)O
assay: Thioflavin T (ThT) fibrillation assay for physical stability; type: physicochemical; conditions: 250 μM in 10 mM HEPES buffer, pH 7.5, 37° C., shaking 960 rpm
How it was run: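 Peptide at 250 μM in 10 mM HEPES pH 7.5 with 1 μM ThT, at 37° C with 960 rpm orbital shaking. Fluorescence (ex 444/em 485 nm) read every 20 min after 10 min pre-incubation; sigmoidal fit gives lag time (t0−2τ) and kapp (1/τ). Recovery is RP-HPLC peptide in the centrifuged, 0.22 μm-filtered supernatant as % of initial.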

Compared with CC(C)C[C@H](NC(=O)[C@H](Cc1ccc(O)cc1)NC(=O)[C@H](CCCCN)NC(=O)[C@H](CO)NC(=O)[C@H](CC(C)C)NC(=O)[C@H](CC(=O)O)NC(=O)[C@H](CO)NC(=O)[C@@H](NC(=O)[C@H](Cc1ccccc1)NC(=O)[C@@H](NC(=O)CNC(=O)[C@H](CCC(N)=O)NC(=O)C(C)(C)NC(=O)[C@@H](N)Cc1c[nH]cn1)[C@@H](C)O)[C@@H](C)O)C(=O)N[C@@H](CCC(=O)O)C(=O)N[C@@H](CO)C(=O)N[C@@H](CCCNC(=N)N)C(=O)N[C@@H](CCCNC(=N)N)C(=O)N[C@@H](C)C(=O)N[C@@H](CCCNC(=N)N)C(=O)N[C@@H](CCC(=O)O)C(=O)N[C@@H](Cc1ccccc1)C(=O)N[C@H](C(=O)N[C@@H](CCC(N)=O)C(=O)N[C@@H](Cc1c[nH]c2ccccc12)C(=O)N[C@@H](CC(C)C)C(=O)N[C@@H](CC(C)C)C(=O)N[C@@H](CCCCNC(=O)CC[C@H](NC(=O)CC[C@H](NC(=O)COCCOCCNC(=O)COCCOCCNC(=O)CC[C@H](NC(=O)CC[C@H](NC(=O)CCCCCCCCCCCCCCCCC(=O)O)C(=O)O)C(=O)O)C(=O)O)C(=O)O)C(=O)N[C@H](C(N)=O)[C@@H](C)O)C(C)C [Example 60, N^ε28-[(4S)-4-carboxy-4-[[(4S)-4-carboxy-4-[[2-[2-[2-[[2-[2-[2-[[(4S)-4-carboxy-4-[[(4S)-4-carboxy-4-(17-carboxyheptadecanoylamino)butanoyl]amino]butanoyl]amino]ethoxy]ethoxy]acetyl]amino]ethoxy]ethoxy]acetyl]amino]butanoyl]amino]butanoyl]-[Aib2,Leu10,Glu15,Arg20,Glu21,Leu27,Lys28]-Glucagon amide] (H-H[Aib]QGTFTSDLSKYLESRRAREFVQWLLK([γGlu-γGlu-AEEA-AEEA-γGlu-γGlu-C18 diacid])T-NH2; N-terminus assumed), CC(C)C[C@H](NC(=O)[C@H](Cc1ccc(O)cc1)NC(=O)[C@H](CCCCN)NC(=O)[C@H](CO)NC(=O)[C@H](CC(C)C)NC(=O)[C@H](CC(=O)O)NC(=O)[C@H](CO)NC(=O)[C@@H](NC(=O)[C@H](Cc1ccccc1)NC(=O)[C@@H](NC(=O)CNC(=O)[C@H](CCC(N)=O)NC(=O)C1(NC(=O)[C@@H](N)Cc2c[nH]cn2)CCC1)[C@@H](C)O)[C@@H](C)O)C(=O)N[C@@H](CCC(=O)O)C(=O)N[C@@H](CO)C(=O)N[C@@H](CCCNC(=N)N)C(=O)N[C@@H](CCCNC(=N)N)C(=O)N[C@@H](C)C(=O)N[C@@H](CCCNC(=N)N)C(=O)N[C@@H](CCC(=O)O)C(=O)N[C@@H](Cc1ccccc1)C(=O)N[C@H](C(=O)N[C@@H](CCC(N)=O)C(=O)N[C@@H](Cc1c[nH]c2ccccc12)C(=O)N[C@@H](CC(C)C)C(=O)N[C@@H](CC(C)C)C(=O)N[C@@H](CCCCNC(=O)CC[C@H](NC(=O)CC[C@H](NC(=O)COCCOCCNC(=O)COCCOCCNC(=O)CC[C@H](NC(=O)CC[C@H](NC(=O)CCCCCCCCCCCCCCCCC(=O)O)C(=O)O)C(=O)O)C(=O)O)C(=O)O)C(=O)N[C@H](C(N)=O)[C@@H](C)O)C(C)C [Example 61, N^ε28-[(4S)-4-carboxy-4-[[(4S)-4-carboxy-4-[[2-[2-[2-[[2-[2-[2-[[(4S)-4-carboxy-4-[[(4S)-4-carboxy-4-(17-carboxyheptadecanoylamino)butanoyl]amino]butanoyl]amino]ethoxy]ethoxy]acetyl]amino]ethoxy]ethoxy]acetyl]amino]butanoyl]amino]butanoyl]-[Acb2,Leu10,Glu15,Arg20,Glu21,Leu27,Lys28]-Glucagon amide] (H-H[Ac4c]QGTFTSDLSKYLESRRAREFVQWLLK([γGlu-γGlu-AEEA-AEEA-γGlu-γGlu-C18 diacid])T-NH2; N-terminus assumed) is 2.2-fold lower in THT assay Lag time (Ex. 76): 45 h for the first, 20 h for the second.

CC(C)C[C@H](NC(=O)[C@H](Cc1ccc(O)cc1)NC(=O)[C@H](CCCCN)NC(=O)[C@H](CO)NC(=O)[C@H](CC(C)C)NC(=O)[C@H](CC(=O)O)NC(=O)[C@H](CO)NC(=O)[C@@H](NC(=O)[C@H](Cc1ccccc1)NC(=O)[C@@H](NC(=O)CNC(=O)[C@H](CCC(N)=O)NC(=O)C1(NC(=O)[C@@H](N)Cc2c[nH]cn2)CCC1)[C@@H](C)O)[C@@H](C)O)C(=O)N[C@@H](CCC(=O)O)C(=O)N[C@@H](CO)C(=O)N[C@@H](CCCNC(=N)N)C(=O)N[C@@H](CCCNC(=N)N)C(=O)N[C@@H](C)C(=O)N[C@@H](CCC(N)=O)C(=O)N[C@@H](CC(=O)O)C(=O)N[C@@H](Cc1ccccc1)C(=O)N[C@H](C(=O)N[C@@H](CCC(N)=O)C(=O)N[C@@H](Cc1c[nH]c2ccccc12)C(=O)N[C@@H](CC(C)C)C(=O)N[C@@H](CC(C)C)C(=O)N[C@@H](CCCCNC(=O)COCCOCCNC(=O)COCCOCCNC(=O)CC[C@H](NC(=O)CC[C@H](NC(=O)CC[C@H](NC(=O)CCCCCCCCCCCCCCCCC(=O)O)C(=O)O)C(=O)O)C(=O)O)C(=O)N[C@H](C(N)=O)[C@@H](C)O)C(C)C [Example 63, N^ε28-[2-[2-[2-[[2-[2-[2-[[(4S)-4-carboxy-4-[[(4S)-4-carboxy-4-[[(4S)-4-carboxy-4-(17-carboxyheptadecanoylamino)butanoyl]amino]butanoyl]amino]butanoyl]amino]ethoxy]ethoxy]acetyl]amino]ethoxy]ethoxy]acetyl]-[Acb2,Leu10,Glu15,Leu27,Lys28]-Glucagon amide] (H-H[Ac4c]QGTFTSDLSKYLESRRAQDFVQWLLK([AEEA-AEEA-γGlu-γGlu-γGlu-C18 diacid])T-NH2; N-terminus assumed) and CC(C)C[C@H](NC(=O)[C@H](Cc1ccc(O)cc1)NC(=O)[C@H](CCCCN)NC(=O)[C@H](CO)NC(=O)[C@H](CC(C)C)NC(=O)[C@H](CC(=O)O)NC(=O)[C@H](CO)NC(=O)[C@@H](NC(=O)[C@H](Cc1ccccc1)NC(=O)[C@@H](NC(=O)CNC(=O)[C@H](CCC(N)=O)NC(=O)C(C)(C)NC(=O)[C@@H](N)Cc1c[nH]cn1)[C@@H](C)O)[C@@H](C)O)C(=O)N[C@@H](CC(=O)O)C(=O)N[C@@H](C)C(=O)N[C@@H](CCCNC(=N)N)C(=O)N[C@@H](CCCNC(=N)N)C(=O)N[C@@H](C)C(=O)N[C@@H](CCCNC(=N)N)C(=O)N[C@@H](CC(=O)O)C(=O)N[C@@H](Cc1ccccc1)C(=O)N[C@H](C(=O)N[C@@H](CCC(N)=O)C(=O)N[C@@H](Cc1c[nH]c2ccccc12)C(=O)N[C@@H](CC(C)C)C(=O)N[C@@H](CC(C)C)C(=O)N[C@@H](CO)C(=O)N[C@@H](CCCCNC(=O)CC[C@H](NC(=O)CC[C@H](NC(=O)COCCOCCNC(=O)COCCOCCNC(=O)CC[C@H](NC(=O)CCCCCCCCCCCCCCCCC(=O)O)C(=O)O)C(=O)O)C(=O)O)C(N)=O)C(C)C [Example 66, N^ε29-[(4S)-4-carboxy-4-[[(4S)-4-carboxy-4-[[2-[2-[2-[[2-[2-[2-[[(4S)-4-carboxy-4-(17-carboxyheptadecanoylamino)butanoyl]amino]ethoxy]ethoxy]acetyl]amino]ethoxy]ethoxy]acetyl]amino]butanoyl]amino]butanoyl]-[Aib2,Leu10,Ala16,Arg20,Leu27,Ser28,Lys29]-Glucagon amide] (H-H[Aib]QGTFTSDLSKYLDARRARDFVQWLLSK([γGlu-γGlu-AEEA-AEEA-γGlu-C18 diacid])-NH2; N-terminus assumed) are the same in THT assay Lag time (Ex. 76): 45 h for the first, 45 h for the second.

CC(C)C[C@H](NC(=O)[C@H](Cc1ccc(O)cc1)NC(=O)[C@H](CCCCN)NC(=O)[C@H](CO)NC(=O)[C@H](CC(C)C)NC(=O)[C@H](CC(=O)O)NC(=O)[C@H](CO)NC(=O)[C@@H](NC(=O)[C@H](Cc1ccccc1)NC(=O)[C@@H](NC(=O)CNC(=O)[C@H](CCC(N)=O)NC(=O)C(C)(C)NC(=O)[C@@H](N)Cc1c[nH]cn1)[C@@H](C)O)[C@@H](C)O)C(=O)N[C@@H](CC(=O)O)C(=O)N[C@@H](C)C(=O)N[C@@H](CCCNC(=N)N)C(=O)N[C@@H](CCCNC(=N)N)C(=O)N[C@@H](C)C(=O)N[C@@H](CCCNC(=N)N)C(=O)N[C@@H](CC(=O)O)C(=O)N[C@@H](Cc1ccccc1)C(=O)N[C@H](C(=O)N[C@@H](CCC(N)=O)C(=O)N[C@@H](Cc1c[nH]c2ccccc12)C(=O)N[C@@H](CC(C)C)C(=O)N[C@@H](CC(C)C)C(=O)N[C@@H](CC(N)=O)C(=O)N[C@@H](CCCCNC(=O)CC[C@H](NC(=O)CC[C@H](NC(=O)COCCOCCNC(=O)COCCOCCNC(=O)CC[C@H](NC(=O)CCCCCCCCCCCCCCCCC(=O)O)C(=O)O)C(=O)O)C(=O)O)C(N)=O)C(C)C [Example 65] (H-H[Aib]QGTFTSDLSKYLDARRARDFVQWLLNK([γGlu-γGlu-AEEA-AEEA-γGlu-C18 diacid])-NH2; N-terminus assumed) and CC(C)C[C@H](NC(=O)[C@H](Cc1ccc(O)cc1)NC(=O)[C@H](CCCCN)NC(=O)[C@H](CO)NC(=O)[C@H](CC(C)C)NC(=O)[C@H](CC(=O)O)NC(=O)[C@H](CO)NC(=O)[C@@H](NC(=O)[C@H](Cc1ccccc1)NC(=O)[C@@H](NC(=O)CNC(=O)[C@H](CCC(N)=O)NC(=O)C(C)(C)NC(=O)[C@@H](N)Cc1c[nH]cn1)[C@@H](C)O)[C@@H](C)O)C(=O)N[C@@H](CCC(=O)O)C(=O)N[C@@H](CO)C(=O)N[C@@H](CCCNC(=N)N)C(=O)N[C@@H](CCCNC(=N)N)C(=O)N[C@@H](C)C(=O)N[C@@H](CCCNC(=N)N)C(=O)N[C@@H](CCC(=O)O)C(=O)N[C@@H](Cc1ccccc1)C(=O)N[C@H](C(=O)N[C@@H](CCC(N)=O)C(=O)N[C@@H](Cc1c[nH]c2ccccc12)C(=O)N[C@@H](CC(C)C)C(=O)N[C@@H](CC(C)C)C(=O)N[C@@H](CCCCNC(=O)CC[C@H](NC(=O)CC[C@H](NC(=O)[C@H](CO)NC(=O)[C@H](CCC(=O)O)NC(=O)[C@H](CO)NC(=O)CC[C@H](NC(=O)CC[C@H](NC(=O)CCCCCCCCCCCCCCCCC(=O)O)C(=O)O)C(=O)O)C(=O)O)C(=O)O)C(=O)N[C@H](C(N)=O)[C@@H](C)O)C(C)C [Example 67, N^ε28-[(4S)-4-carboxy-4-[[(4S)-4-carboxy-4-[[(2S)-2-[[(2S)-4-carboxy-2-[[(2S)-2-[[(4S)-4-carboxy-4-[[(4S)-4-carboxy-4-(17-carboxyheptadecanoylamino)butanoyl]amino]butanoyl]amino]-3-hydroxypropanoyl]amino]butanoyl]amino]-3-hydroxypropanoyl]amino]butanoyl]amino]butanoyl]-[Aib2,Leu10,Glu15,Arg20,Glu21,Leu27,Lys28]-Glucagon amide] (H-H[Aib]QGTFTSDLSKYLESRRAREFVQWLLK([γGlu-γGlu-Ser-Glu-Ser-γGlu-γGlu-C18 diacid])T-NH2; N-terminus assumed) are the same in THT assay Lag time (Ex. 76): 45 h for the first, 45 h for the second.

Source: patent US9474790B2, “Stable, protracted GLP-1/glucagon receptor co-agonists for medical use” (Novo Nordisk A/S, priority 2013, dated 2016)
